Tests used:
Assay in all cases: In vitro antibacterial evaluation: minimum inhibitory concentration (MIC), broth dilution method
Assay type in all cases: cell-based
[1] = system: Streptococcus sp.; conditions: 18 hours at 35° C.
In short: (§1)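 First, organisms are seeded at 5×10^5 CFU/mL into Muller-Hinton II […]. Next, antibiotic is applied across 64-0.06 μg/mL by broth dilution (NCCLS M7-A2). Finally, the lowest inhibitory concentration is recorded as MIC.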

[2] = system: Enterococcus sp.
In short: as §1

[3] = system: Escherichia coli
In short: as §1

[4] = system: Staphylococcus sp.; conditions: 18 hours at 35° C.
In short: as §1

[5] = system: Escherichia coli; remark: listed apart in the source

α-O-[(Cyclohexylamino)carbonyl]-cyclo[glycyl-β-methylphenylalanyl-O-(4-O-hexopyranosylhexopyranosyl)tyrosyl-3-(2-iminoimidazolidin-4-yl)seryl-3-(3-hexopyranosyl-2-iminoimidazolidin-4-yl)serylseryl] [Example 256]
MIC Streptococcus agalactiae (GC 4564) ([1]; Streptococcus agalactiae (GC 4564)): >64 µg/mL | MIC Streptococcus pneumoniae (GC 4565) ([1]; Streptococcus pneumoniae (GC 4565)): >64 µg/mL | MIC Streptococcus pyogenes (ID-3187) ([1]; Streptococcus pyogenes (ID-3187)): 64 µg/mL | MIC Streptococcus agalactiae (GC 4564) ([1]; broth dilution, strain GC 4564): >64 µg/mL | MIC Streptococcus pneumoniae (GC 4565) ([1]; broth dilution, strain GC 4565): >64 µg/mL | MIC Streptococcus pyogenes (ID-3187) ([1]; broth dilution, strain ID-3187): 64 µg/mL | MIC Enterococcus avium (GC 4558) ([2]; Enterococcus avium (GC 4558)): >64 µg/mL | MIC Enterococcus faecalis (ATCC 29212) ([2]; Enterococcus faecalis (ATCC 29212)): >64 µg/mL | MIC Enterococcus faecalis (GC 2242) ([2]; Enterococcus faecalis (GC 2242), 18 hours at 35° C.): >64 µg/mL | MIC Enterococcus faecalis (GC 4552) ([2]; Enterococcus faecalis (GC 4552), 18 hours at 35° C.): >64 µg/mL | MIC Enterococcus faecalis (GC 4553) ([2]; Enterococcus faecalis (GC 4553)): >64 µg/mL | MIC Enterococcus faecalis (GC 4554) ([2]; Enterococcus faecalis (GC 4554)): >64 µg/mL | MIC Enterococcus faecium (GC 2243) ([2]; Enterococcus faecium (GC 2243)): >64 µg/mL | MIC Enterococcus faecium (GC 4556) ([2]; Enterococcus faecium (GC 4556)): >64 µg/mL | MIC Enterococcus faecium (GC 4557) ([2]; Enterococcus faecium (GC 4557)): 64 µg/mL | MIC Enterococcus faecalis (ATCC 29212) ([2]; broth dilution, 18 hours at 35° C., strain ATCC 29212): >64 µg/mL | MIC Enterococcus faecalis (GC 2242) ([2]; broth dilution, 18 hours at 35° C., strain GC 2242): >64 µg/mL | MIC Enterococcus faecium (GC 2243) ([2]; broth dilution, 18 hours at 35° C., strain GC 2243): >64 µg/mL | MIC Enterococcus faecalis (GC 4552) ([2]; broth dilution, 18 hours at 35° C., strain GC 4552): >64 µg/mL | MIC Enterococcus faecalis (GC 4553) ([2]; broth dilution, 18 hours at 35° C., strain GC 4553): >64 µg/mL | MIC Enterococcus faecalis (GC 4554) ([2]; broth dilution, 18 hours at 35° C., strain GC 4554): >64 µg/mL | MIC Enterococcus faecium (GC 4556) ([2]; broth dilution, 18 hours at 35° C., strain GC 4556): >64 µg/mL | MIC Enterococcus faecium (GC 4557) ([2]; broth dilution, 18 hours at 35° C., strain GC 4557): 64 µg/mL | MIC Enterococcus avium (GC 4558) ([2]; broth dilution, 18 hours at 35° C., strain GC 4558): >64 µg/mL | MIC Escherichia coli (GC 4559) ([3]; Escherichia coli (GC 4559)): >64 µg/mL | MIC Escherichia coli (GC 4560) ([3]; Escherichia coli (GC 4560)): 32 µg/mL | MIC Coagulase Negative Staphylococcus (GC 4547) ([4]; Coagulase Negative Staphylococcus (GC 4547)): >64 µg/mL | MIC Coagulase Negative Staphylococcus (GC 4548) ([4]; Coagulase Negative Staphylococcus (GC 4548)): >64 µg/mL | MIC Coagulase Negative Staphylococcus (GC 4549) ([4]; Coagulase Negative Staphylococcus (GC 4549)): >64 µg/mL | MIC Coagulase Negative Staphylococcus (GC 4551) ([4]; Coagulase Negative Staphylococcus (GC 4551)): >64 µg/mL | MIC Coagulase Negative Staphylococcus (ID-3941) ([4]; Coagulase Negative Staphylococcus (ID-3941)): >64 µg/mL | MIC Staphylococcus aureus (ATCC 29213) ([4]; Staphylococcus aureus (ATCC 29213)): >64 µg/mL | MIC Staphylococcus aureus (GC 1131) ([4]; Staphylococcus aureus (GC 1131)): >64 µg/mL | MIC Staphylococcus aureus (GC 4541) ([4]; Staphylococcus aureus (GC 4541)): >64 µg/mL | MIC Staphylococcus aureus (GC 4542) ([4]; Staphylococcus aureus (GC 4542)): >64 µg/mL | MIC Staphylococcus aureus (GC 4544) ([4]; Staphylococcus aureus (GC 4544)): >64 µg/mL | MIC Staphylococcus aureus (GC 4545) ([4]; Staphylococcus aureus (GC 4545)): >64 µg/mL | MIC Staphylococcus aureus-SMITH (GC 4543) ([4]; Staphylococcus aureus-SMITH (GC 4543)): >64 µg/mL | MIC Staphylococcus haemolyticus (GC 4546) ([4]; Staphylococcus haemolyticus (GC 4546)): >64 µg/mL | MIC Staphylococcus aureus (ATCC 29213) ([4]; broth dilution, strain ATCC 29213): >64 µg/mL | MIC Staphylococcus aureus (GC 1131) ([4]; broth dilution, strain GC 1131): >64 µg/mL | MIC Staphylococcus aureus (GC 4541) ([4]; broth dilution, strain GC 4541): >64 µg/mL | MIC Staphylococcus aureus (GC 4542) ([4]; broth dilution, strain GC 4542): >64 µg/mL | MIC Staphylococcus aureus (GC 4544) ([4]; broth dilution, strain GC 4544): >64 µg/mL | MIC Staphylococcus aureus (GC 4545) ([4]; broth dilution, strain GC 4545): >64 µg/mL | MIC Escherichia coli (ATCC 25922) [5]: >64 µg/mL
